These results are taken from patent publication US20190023738A1, “THERAPEUTIC COMPOSITIONS INCLUDING PHENAZINE-3-ONE AND PHENOTHIAZINE-3-ONE DERIVATIVES AND USES THEREOF” (Stealth BioTherapeutics Corp, priority 2015, published 2019).

For assay [1], the system named is neonatal cardiomyocytes. Kind of assay: Mitosox mitochondrial superoxide in Angiotensin II-stimulated neonatal cardiomyocytes (flow cytometry). The settings on record: NAC 0.5 mM, Angiotensin II 1 μM for 3 hours, Mitosox fluorescence. The assay is classed as cell-based, mouse. How it is done:
Ventricles from mouse neonates younger than 72 hours will be dissected, minced, and enzymatically digested with Blendzyme 4 (45 mg/mL, Roche). After enzymatic digestion, cardiomyocytes will be enriched using differential pre-plating for 2 hours, and seeded on fibronectin-coated culture dishes for 24 hours in DMEM (Gibco) with 20% Fetal Bovine Serum (Sigma) and 25 μM Arabinosylcytosine (Sigma). Cardiomyocytes will be stimulated with Angiotensin II (1 μM) for 3 hours in serum-free DMEM containing 0.5% insulin transferrin-selenium (Sigma), 2 mM glutamine, and 1 mg/mL BSA. […] Samples will be analyzed using excitation/emission of 488/625 nm by flow cytometry. Flow data will be analyzed using FCS Express (De Novo Software, Los Angeles, Calif., U.S.A.), and presented as histogram distributions of Mitosox fluorescence intensity.
(In general: A flow cytometer gives signals particle by particle.)

Assay [2] has as its system several mammalian cell types. The settings on record: cited from earlier work.

In the case of `CC(=O)N[C@@H](CS)C(=O)O` [N-acetyl cysteine], the “effect on the level of mitochondrial ROS after Ang II” value in assay [1] was “not show any effect”. On to 2′,6′-Dmt-D-Arg-Phe-Lys-NH2, for which the “penetration of the plasma membrane” value in assay [2] is on record as “readily penetrates the plasma membrane of several mammalian cell types in an energy-independent manner”.
